The source of these data is US20180353462A1, “[…] AGENTS […] FLAVONOID DERIVATIVES TARGETING KINASES, SIRTUINS AND ONCOGENIC AGENTS FOR THE TREATMENT OF CANCERS” (priority 2015, published 2018).

Where two headings read alike, the source gives them in different places.

Test [1] concerns MOLM-14 acute myeloid leukemia cell line. Nature of the test: WST-1 anticancer cell proliferation assay, MOLM-14. Format: cell-based. The following applies: Table 4; read-out: Acute Myeloid Leukemia cell lines MOLM-14 IC50. On the procedure: (§1) Anticancer activity was tested against several standard cancer cell lines including brain, breast, Kaposi sarcoma, leukemia, lung, melanoma, tenosynovial giant cell tumor, ovarian, pancreatic, colon and prostate cancer. Cells were trypsinized and plated into 96 well plates in 50 μl of media and incubated overnight. The next day approximately 18 hours after plating, 50 μl of media containing the required flavonoid-based pharmaceutical composition was added per well. Cells were plated at a density so that 72 hours post drug addition, the cells will be in log phase (500)-2000 cells/well). The compounds and extracts were solubilized in Dimethyl sulfoxide (DMSO). The cells are allowed to proliferate for 72 hours 37° C. in humidified atmosphere of 5% CO2. The experiment is terminated using WST-1 (Roche®) 10 μl per well and absorbance is read at 450 nm %690 nm. The effect of drugs on growth is assessed as percent of cell viability. The IC50 values were determined from the extract dose versus control growth curves using Graphpad Prism® software. All experiments were carried out in duplicate and the mean results determined.
Background: Formazan colour is commonly taken as a measure of viable cells.

Test [2] relates to THP-1 acute myeloid leukemia cell line. Put plainly: WST-1 anticancer cell proliferation assay, THP-1. It counts as cell-based. The following applies: Table 4; read-out: Acute Myeloid Leukemia cell lines THP-1 IC50. As to the method:
as §1

In test [3] the target is T1, FLT3(ITD) (Homo sapiens, UniProt P36888).
T1 construct: In general, full-length constructs were used for small, single domain kinases, and catalytic domain constructs for large multi-domain kinases; fused on or other part: T7 phage fusion or DNA tag for qPCR detection (general statement)
T1 sequence (P36888 1-993): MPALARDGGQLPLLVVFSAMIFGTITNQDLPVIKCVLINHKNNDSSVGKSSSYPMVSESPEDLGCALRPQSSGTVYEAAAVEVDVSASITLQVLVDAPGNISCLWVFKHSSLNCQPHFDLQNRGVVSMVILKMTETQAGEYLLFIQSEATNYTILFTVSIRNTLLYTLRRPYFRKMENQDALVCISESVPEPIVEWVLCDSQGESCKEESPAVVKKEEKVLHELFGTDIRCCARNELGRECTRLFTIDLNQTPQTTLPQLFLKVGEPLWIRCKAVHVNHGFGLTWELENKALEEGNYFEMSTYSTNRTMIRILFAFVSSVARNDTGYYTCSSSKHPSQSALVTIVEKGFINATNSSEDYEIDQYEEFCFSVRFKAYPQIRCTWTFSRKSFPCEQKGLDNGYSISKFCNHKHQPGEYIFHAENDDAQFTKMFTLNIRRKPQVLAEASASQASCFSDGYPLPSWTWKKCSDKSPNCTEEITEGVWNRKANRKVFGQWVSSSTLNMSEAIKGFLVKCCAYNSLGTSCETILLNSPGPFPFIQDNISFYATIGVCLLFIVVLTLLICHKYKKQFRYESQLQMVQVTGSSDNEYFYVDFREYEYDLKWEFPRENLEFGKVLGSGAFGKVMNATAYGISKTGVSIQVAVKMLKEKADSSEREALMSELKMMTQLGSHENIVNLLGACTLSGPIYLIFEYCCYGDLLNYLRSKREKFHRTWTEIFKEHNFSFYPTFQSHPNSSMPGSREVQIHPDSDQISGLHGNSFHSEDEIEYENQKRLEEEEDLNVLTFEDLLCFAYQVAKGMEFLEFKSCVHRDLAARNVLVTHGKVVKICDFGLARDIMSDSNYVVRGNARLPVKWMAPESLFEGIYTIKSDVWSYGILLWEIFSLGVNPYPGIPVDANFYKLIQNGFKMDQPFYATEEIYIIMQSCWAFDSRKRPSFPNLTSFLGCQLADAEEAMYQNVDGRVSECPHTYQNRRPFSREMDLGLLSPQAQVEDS
Format: binding. As to the method: Cannabis flavonoids and their analogs were subjected to kinase inhibition assay. The compounds were first screened at a single concentration of 10 μM in the primary assay. […] To determine the kd or IC50 values, competition binding assays were established, authenticated and executed as described previously. […] See also, Karaman et al., “A Quantitative Analysis Of Kinase Inhibitor Selectivity”, Nat. Biotechnol. […] For most assays, kinases were fused to T7 phage strains (Fabian, supra) and for the other assays, kinases were produced in HEK-293 cells after which they were tagged with DNA for quantitative PCR detection. In general, full-length constructs were used for small, single domain kinases, and catalytic domain constructs for large multi-domain kinases. […] The liganded beads were blocked with excess biotin and washed with blocking buffer (SeaBlock (Pierce), 1% BSA, 0.05% Tween 20, 1 mM DTT) to remove unbound ligand and to reduce non-specific phage binding. […] All reactions were performed in polypropylene 384-well plates in a final volume of 0.04 ml. […] The kinase concentration in the eluates was measured by quantitative PCR. An illustration of the kinase interaction process is presented below. Kd/IC50 values were determined using a standard dose response curve using the hill equation. Curves were fitted using a non-linear least square fit with the Levenberg-Marquardt algorithm.

For test [4], the system named is Normal Bone marrow. Nature of the test: Cell viability, normal bone marrow. It counts as cell-based. The following applies: Table 4. As to the method: as §1, with “Bioactivity of the above-described compounds has been verified by an anticancer cell proliferation assay using the WST-1 (4-[3-(4-iodophenyl)-2-(4-nitrophenyl)-2H-5-tetrazolio]-1, 3-benzene disulfonate) colorimetric assay by Roche Life Sciences®. Anticancer” for “Anticancer”

Setting [5] is: Table 4, read-out: Acute Myeloid Leukemia Kinases FLT3-ITD IC50.
Setting [6] is: Table 1 kinase panel, read-out: IC50 (nM) FLT3(ITD).

Regarding `O=c1c(O)c(-c2ccc(O)c(O)c2)oc2cc(O)ccc12` [FBLGS-83], the IC50 – broadly, the point on the concentration scale where inhibition reaches its midpoint – stood at 2.35 µM in test [1], 13 µM in test [2] and 180 nM in test [3] (setting [5]).

On to `Cc1cc2oc(-c3cccc(N)c3)cc(=O)c2c([N+](=O)[O-])c1C` [FBLGS-76], for which the IC50 in test [4] was > 100 µM; in test [1], 2.3 µM; in test [2], > 100 µM; in test [3] (setting [5]), 750 nM.

Turning to `COc1cc(-c2oc3cc(O)ccc3c(=O)c2O)ccc1O` [FBLGS-81], the IC50 was > 100 µM in test [4], 0.7 µM in test [1], > 100 µM in test [2] and 3.8 nM in test [3] (setting [5]).

`COc1cc(O)c2c(=O)c(O)c(-c3ccc(O)c(O)c3)oc2c1` [FBLGS-78]: the half-inhibitory concentration (IC50) was > 100 µM in test [4], 5.73 µM in test [1], > 100 µM in test [2] and 345 nM in test [3] (setting [5]).

`COc1ccc(C2CC(=O)c3c(O)cc(O)cc3O2)cc1O` (stereo not shown) [FBLGS-74]: the half-inhibitory concentration (IC50) was > 100 µM in test [4], > 100 µM in test [1], > 100 µM in test [2] and 9090 nM in test [3] (setting [5]).

As for `COc1cc(-c2cc(=O)c3c(O)c(OC)c(OC)cc3o2)ccc1O` [FBLGS-85], the half-maximal inhibitory concentration (IC50) in test [4] was > 100 µM; in test [1], 1.5 µM; in test [2], > 100 µM; in test [3] (setting [5]) it was 57 nM.

`COc1cc(-c2cc(=O)c3c(O)cc(O)c(C/C=C(\C)CCC=C(C)C)c3o2)ccc1O` [FBL-03C]: the IC50 in test [3] (setting [6]) was > 20000 nM.

Take `COc1ccc(-c2cc(=O)c3c(O)c(C/C=C(\C)CCC=C(C)C)c(O)cc3o2)cc1OC` [FBL-03D]: the IC50 in test [3] (setting [6]) is > 30000 nM.

As for `COc1cc(-c2cc(=O)c3c(O)c(OC)c(O)cc3o2)ccc1O` [FBLGS-86], the half-maximal inhibitory concentration (IC50) is > 100 µM in test [4], 3.1 µM in test [1], > 100 µM in test [2] and 45 nM in test [3] (setting [5]).

As for `COc1cc(-c2cc(=O)c3c(O)cc(O)c(CC=C(C)C)c3o2)ccc1O` [FBL-03G], in test [3] (setting [6]), the IC50 was < 1000 nM.

As to `COc1cc(-c2cc(=O)c3c(O)c(C/C=C(\C)CCC=C(C)C)c(O)cc3o2)ccc1O` [FBL-03A], in test [3] (setting [6]), the IC50 was > 20000 nM.

As for `COc1cc(O)c2c(=O)c(O)c(-c3ccc(O)c(O)c3)oc2c1` [FBLGS-79], the half-inhibitory concentration (IC50) in test [4] was > 100 µM; in test [1], 4.84 µM; in test [2], > 100 µM; in test [3] (setting [5]), 84 nM.

On to `COc1cc(O)c2c(=O)c(O)c(-c3ccc(O)c(OC)c3)oc2c1` [FBLGS-80], for which the IC50 in test [4] was > 100 µM; in test [1] it was 6.12 µM; in test [2], > 100 µM; in test [3] (setting [5]), 84 nM.

`O=C1CC(c2ccc(O)c(O)c2)Oc2cc(O)cc(O)c21` (stereo not shown) [FBLGS-82]: the concentration for half-maximal inhibition (IC50) is > 100 µM in test [4], > 10 µM in test [1], > 100 µM in test [2] and 12100 nM in test [3] (setting [5]).

Regarding `O=c1cc(-c2ccc(O)c(O)c2)oc2cc(O)cc(O)c12` [FBLGS-77], the IC50 in test [4] is > 100 µM; in test [1], 7.34 µM; in test [2], > 100 µM; in test [3] (setting [5]) it was 799 nM.

Consider `COc1cc(-c2cc(=O)c3c(O)c(CC=C(C)C)c(O)cc3o2)ccc1O` [FBL-03B], for which, in test [3] (setting [6]), the IC50 is 57 nM.

With `O=c1c(O)c(-c2ccc(O)c(O)c2)oc2cc(O)cc(O)c12` [FBLGS-84], the IC50 in test [4] is > 100 µM; in test [1], 7.42 µM; in test [3] (setting [5]), 453 nM.

On to `O=c1cc(-c2ccccc2)oc2cc(O)cc(O)c12` [FBLGS-75], for which the IC50 was > 100 µM in test [4], 4.57 µM in test [1], > 100 µM in test [2] and 91 nM in test [3] (setting [5]).
